According to patent US11555042B2, “Macrocyclic compounds as TRK kinases inhibitors” (FOCHON BIOSCIENCES, LTD., priority 2018, dated 2023):

Target: T1, ETV6-TRKC-G623R (Homo sapiens, UniProt Q16288, G623R)
T1 construct: fused on or other part: P41212 (Transcription factor ETV6)
Experiment: Engineered Ba/F3 cell proliferation inhibition (MTS), ETV6-TRKC-G623R
Assay type: cell-based
Settings: 72 h
Excerpt: MTS testing kit was purchased from Promega (Madison, Wis., USA). The RPMI-1640, Fetal bovine serum and Penicillin-Streptomycin were purchased from Gibco (San Francisco, Calif., USA). Dimethyl sulfoxide (DMSO) and Puromycin were purchased from Sigma (St. Louis., Mo., USA). Mouse interleukin-3 (IL-3) was purchased from Cell signaling Technology (Boston, Mass., USA).
To investigate whether a compound is able to inhibit the activity of TRK fusion mutation in cells, a mechanism-based assay using engineered Ba/F3 cell lines stably overexpressing oncogenic rearrangement or gene mutation of TRK (TPM3-TRKA, TPM3-TRKA-G595R, AFAP1-TRKB, ETV6-TRKC and ETV6-TRKC-G623R) were developed. In this assay, inhibition of TRK fusion mutation was detected by the cell proliferation inhibition of engineered Ba/F3 cells. Engineered Ba/F3 cells were cultured in culture flasks to 40-80% confluence in RPMI-1640 supplemented with 10% fetal bovine serum, 2 ug/mL puromycin. Cells were collected and plated onto 96-well plates at desired cell density (Ba/F3-TPM3-TRKA: 3×10^4/mL, Ba/F3-TPM3-TRKA-G595R: 1×10^5/mL, Ba/F3-AFAP1-TRKB: 1×10^5/mL, Ba/F3-ETV6-TRKC: 3×10^4/mL, Ba/F3-ETV6-TRKC-G623R: 3×10^4/mL). Plates were incubated at 37° C., with 5% CO2 for 4 h. Compounds were then added to the plates with the final compound concentrations of 10000, 3333, 1111, […], 123, 41.2, 13.7, 4.6 and 1.5 nM. Plates were incubated at 37° C., with 5% CO2 for 72 h. A mixture of 20 μl MTS/100 μl medium were added to each well and the plates were incubated at 37° C., with 5% CO2 for exactly 2 h. The reaction was stopped by adding 25 μl of 10% SDS per well. The absorbance was measured at 490 nm and 650 nm (reference wavelength). IC50 was calculated using GraphPad Prism 5.0 software.

T1 sequence (Q16288 whole entry G623R, the tested form may be a part): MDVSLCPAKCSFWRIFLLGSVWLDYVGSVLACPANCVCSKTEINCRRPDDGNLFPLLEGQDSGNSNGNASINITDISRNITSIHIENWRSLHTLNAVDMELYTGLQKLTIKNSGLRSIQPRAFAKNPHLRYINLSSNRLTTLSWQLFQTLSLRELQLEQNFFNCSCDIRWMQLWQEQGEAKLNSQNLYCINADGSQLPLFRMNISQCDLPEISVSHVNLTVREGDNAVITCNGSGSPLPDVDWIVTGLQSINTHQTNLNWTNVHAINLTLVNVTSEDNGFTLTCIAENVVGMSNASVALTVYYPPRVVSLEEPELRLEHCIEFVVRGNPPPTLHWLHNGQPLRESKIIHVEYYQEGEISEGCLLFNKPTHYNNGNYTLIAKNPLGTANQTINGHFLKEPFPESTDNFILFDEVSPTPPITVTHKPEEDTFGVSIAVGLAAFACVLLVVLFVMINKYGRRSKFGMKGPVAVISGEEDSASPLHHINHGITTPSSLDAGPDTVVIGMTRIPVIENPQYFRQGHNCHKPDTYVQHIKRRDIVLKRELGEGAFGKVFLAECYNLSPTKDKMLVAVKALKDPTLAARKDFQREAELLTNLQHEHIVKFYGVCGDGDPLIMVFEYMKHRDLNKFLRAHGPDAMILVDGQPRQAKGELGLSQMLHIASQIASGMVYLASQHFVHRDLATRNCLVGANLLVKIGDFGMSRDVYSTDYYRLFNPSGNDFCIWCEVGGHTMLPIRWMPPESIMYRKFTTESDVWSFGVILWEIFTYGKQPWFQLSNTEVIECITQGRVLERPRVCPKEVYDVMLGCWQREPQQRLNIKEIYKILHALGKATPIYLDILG

| Compound | IC50 |
| --- | --- |
| [2H]C([2H])([2H])N1c2ccn3ncc(c3n2)C(=O)NC2(CC2)COc2ccc(F)cc2C12CC2 [Example 89, (3′E,4′E)-5′-fluoro-2′-(methyl-d3)dispiro [cyclopropane-1,3′-5-oxa-2,8-diaza-1(5,3)-pyrazolo[1,5-a]pyrimidina-4(1,2)-benzena-cyclononaphan-7′,1″-cyclopropan]-9′-one] | 1 nM |
| [2H]C([2H])([2H])N1c2ccn3ncc(c3n2)C(=O)NC2(CC2)COc2ncc(F)cc2C12CC2 [Example 91, (3′E,4′E)-5′-fluoro-2′-(methyl-d3)dispiro-[cyclopropane-1,3′-5-oxa-2,8-diaza-1(5,3)-pyrazolo[1,5-a]pyrimidina-4(3,2)-pyridina-cyclononaphane-7′,1″-cyclopropan]-9′-one] | 2 nM |
| CN1c2ccn3ncc(c3n2)C(=O)NCC(C)(C)COc2ncc(F)cc2C12CC2 [Example 93, (3′E,4′E)-5′-fluoro-2′,7′,7′-trimethylspiro-[cyclopropane-1,3′-5-oxa-2,9-diaza-1(5,3)-pyrazolo[1,5-a]pyrimidina-4(3,2)-pyridina-cyclodecaphan]-10′-one] | 32 nM |
| CN1c2ccn3ncc(c3n2)C(=O)NCC(F)(F)COc2ncc(F)cc2C12CC2 [Example 94, (3′E,4′E)-5′,7′,7′-trifluoro-2′-methylspiro-[cyclopropane-1,3′-5-oxa-2,9-diaza-1(5,3)-pyrazolo[1,5-a]pyrimidina-4(4,3)-pyridina-cyclodecaphan]-10′-one] | 25 nM |
| CN1c2ccn3ncc(c3n2)C(=O)NCC(F)COc2ncc(F)cc2C12CC2 (centres unmarked) [Example 95, (3′E,4′E)-5′,7′-difluoro-2′-methylspiro-[cyclopropane-1,3′-5-oxa-2,9-diaza-1(5,3)-pyrazolo[1,5-a]pyrimidina-4(3,2)-pyridina-cyclodecaphan]-10′-one] | 1 nM |
| CN1c2ccn3ncc(c3n2)C(=O)NCC(O)COc2ncc(F)cc2C12CC2 (centres unmarked) [Example 96, (3′E,4′E)-5′-fluoro-7′-hydroxy-2′-methyl-spiro[cyclopropane-1,3′-5-oxa-2,9-diaza-1(5,3)-pyrazolo[1,5-a]pyrimidina-4(3,2)-pyridinacyclodecaphan]-10′-one] | 4 nM |
| Nc1nn2ccc3nc2c1C(=O)NC1(CC1)COc1ncc(F)cc1[C@@]12C[C@@H]1CCN32 [Example 98, (1′R,3′E,4′E,5′S)-2′-amino-5′-fluorospiro-[cyclopropane-1,6′-4-oxa-2^2,7-diaza-1(5,3)-pyrazolo[1,5-a]pyrimidina-3(3,2)-pyridina-2(2,1)-bicyclo[3.1.0]-hexanacyclooctaphan]-8′-one] | 1 nM |

Continued, values first:

| IC50 | Compound |
| --- | --- |
| 1 nM | O=C1NCC(F)COc2ncc(F)cc2[C@@]23C[C@@H]2CCN3c2ccn3ncc1c3n2 (some centres unmarked) [Example 82, (1^3E,1^4E,2^1R,2^5S)-3^5,6-difluoro-4-oxa-2^2,8-diaza-1(5,3)-pyrazolo[1,5-a]pyrimidina-3(3,2)-pyridina-2(2,1)-bicyclo[3.1.0] hexanacyclononaphan-9-one] |
| 1 nM | O=C1NCC(O)COc2ncc(F)cc2[C@@]23C[C@@H]2CCN3c2ccn3ncc1c3n2 (some centres unmarked) [Example 83, (1^3E,1^4E,2^1R,2^5S)-3^5-fluoro-6-hydroxy-4-oxa-2^2,8-diaza-1(5,3)-pyrazolo[1,5-a] pyrimidina-3(3,2)-pyridina-2(2,1)-bicyclo [3.1.0]hexanacyclononaphan-9-one] |
| 5 nM | CN1c2ccn3ncc(c3n2)C(=O)NCC2(CC2)COc2ncc(F)cc2C12CC2 [Example 92, (3′E,4′E)-5′-fluoro-2′-methyldispiro-[cyclopropane-1,3′-5-oxa-2,9-diaza-1(5,3)-pyrazolo[1,5-a]pyrimidina-4(3,2)-pyridina-cyclodecaphane-7′,1″-cyclopropan]-10′-one] |
| 25 nM | [2H]C([2H])([2H])N1c2ccn3ncc(c3n2)C(=O)NC2(CCc3ncc(F)cc3C13CC3)CC2 [Example 97, (3′E,4′E)-5′-fluoro-2′-(methyl-d3)-dispiro [cyclopropane-1,3′-2,8-diaza-1(5,3)-pyrazolo[1,5-a]pyrimidina-4(3,2)-pyridinacyclononaphane-7′,1″- cyclopropan]-9′-one] |
